Results: patent US20190062305A1, “PYRIDYL OR PYRAZINYL COMPOUNDS CARRYING A METHYL-BOUND ALPHA-AMINO ACID AMIDE GROUP” (ABBVIE DEUTSCHLAND GMBH & CO. KG, priority 2015, published 2019)
pEC50: −log10 of the molar value. Counter-ions that a name gives are not always drawn.

Columns and labels:
[1] = Metabolic stability in human liver microsomes, unbound intrinsic clearance (Cl int/fu mic); format: in vitro ADME; conditions: human, liver microsomes, pH 7.4, human liver microsomes 0.25 mg/mL, 0.5 μM compound, NADPH, read-out: Cl int, mic unb. (h) [l/h/kg] (unbound intrinsic clearance, human)
Method: Samples of the tested compounds (0.5 μM) were preincubated together with human liver microsomes (0.25 mg of microsomal protein/mL) in 0.05 M potassium phosphate buffer of pH 7.4 in microtiter plates at 37° C. for 5 minutes. The reaction was started by adding NADPH (1.0 mM). After 0, 5, 10, 15, 20 and 30 minutes, an aliquot was removed, the reaction was cooled and stopped by adding twice the amount of quench solution consisting of acetonitrile/methanol 1:1, and containing 0.2 μM carbutamide as internal standard. The samples were frozen until analyzed. The remaining concentration of undegraded test substance was determined by liquid chromatography-tandem mass spectrometry (LC-MS/MS). The half-life (t1/2) was determined from the gradient of the ratio of the signal of (test substance/internal standard)/unit time plot, allowing the calculation of the half-life of the test substance, assuming first order kinetics, from the decrease in the concentration of the compound with time. The microsomal clearance ([…]) was calculated as follows: […]=((ln(2)/t 1⁄2)/Microsomal Protein Concentration (mg/ml))*1000, leading to the unit of uL/min/mg. The scaled clearance (mClin_scaled) was calculated as […]_scaled=m CLint*(Microsomal Yield (mg/kg BW))/1000000*60, leading to the units L/h/kg. The Microsomal Yield is defined by the specifics of the used microsomes. Calculations were modified from references: Di, The Society for Biomolecular Screening, 2003, 453-462; Obach, D M D, 1999 vol 27. N 11, 1350-1359. A suspension of 0.25 mg/ml microsomal protein spiked with 0.5 μM of test compound was pipetted on one side of a HTDialysis device (HTDialysis LLC, 37 Ledgewood Drive, Gales Fery CT 06335) separated by a membrane with a MWcut off 12-14 K. 50 mM K-Phosphate buffer (pH 7.4) was added on the other side of the well. After incubation at 37° C. for 4 h while shaking at 150 rpm, aliquots of both sides were taken, quenched with MeOH/ACN 1:1 and 0.2 μM of internal standard and frozen until analysis by LCMSMS Cl int unbound=Cl int/fu mic

5-HT2C receptor = molecular target: T1, 5-HT2C receptor (Homo sapiens, UniProt P28335); experiment: Human 5-HT2C functional assay (beta-arrestin2 recruitment, U2OS_HTR2C_β-Arrestin cells); format: cell-based; conditions: for pEC50: beta-arrestin2 recruitment, U2OS_HTR2C_β-Arrestin cells, 1.5 h incubation, read-out: EC50 5-HT2C (potency in functional assay); for Emax: relative efficacy vs response to 10 μM 5-HT or maximal 5-HT effect (100%)
T1 construct: host or cells: U2OS
T1 sequence (P28335 33-458): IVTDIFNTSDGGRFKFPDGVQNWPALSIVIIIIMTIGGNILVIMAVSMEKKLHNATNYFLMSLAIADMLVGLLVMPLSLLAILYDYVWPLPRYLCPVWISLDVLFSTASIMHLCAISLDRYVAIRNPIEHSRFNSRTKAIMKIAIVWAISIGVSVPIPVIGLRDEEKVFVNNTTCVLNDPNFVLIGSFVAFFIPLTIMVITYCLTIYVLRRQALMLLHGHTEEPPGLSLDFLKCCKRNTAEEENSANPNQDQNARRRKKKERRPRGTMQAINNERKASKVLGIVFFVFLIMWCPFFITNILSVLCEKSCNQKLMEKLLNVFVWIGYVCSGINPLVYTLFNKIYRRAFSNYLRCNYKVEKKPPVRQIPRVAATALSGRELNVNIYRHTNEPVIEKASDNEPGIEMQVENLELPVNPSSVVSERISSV
T1 sequence (P32121 whole entry partner): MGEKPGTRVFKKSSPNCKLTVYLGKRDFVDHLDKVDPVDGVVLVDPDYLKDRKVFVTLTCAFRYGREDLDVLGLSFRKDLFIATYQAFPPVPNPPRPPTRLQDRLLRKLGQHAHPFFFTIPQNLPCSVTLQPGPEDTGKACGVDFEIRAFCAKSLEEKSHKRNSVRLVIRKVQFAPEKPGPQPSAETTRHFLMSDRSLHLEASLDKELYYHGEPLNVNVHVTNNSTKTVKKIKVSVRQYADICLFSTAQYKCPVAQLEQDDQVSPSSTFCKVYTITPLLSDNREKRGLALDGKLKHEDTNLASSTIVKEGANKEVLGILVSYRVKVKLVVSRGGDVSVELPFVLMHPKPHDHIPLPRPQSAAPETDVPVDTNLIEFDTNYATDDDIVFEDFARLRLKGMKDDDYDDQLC
Method: The functional activity of compounds of formula I was assayed by incubation with U2OS_HTR2C_β-Arrestin cells (DiscoverX, 93-0289C3) to induce beta-arrestin2 recruitment to the 5-HT2C receptor. The agonist-induced recruitment and proximity of the receptor and beta-arrestin2 leads to complementation and formation of active β-galactosidase. The enzyme complementation results in enzyme activity, which is measured following the termination of the agonist incubation using DiscoveRx's detection reagent, which contains a chemiluminescent substrate which produces a high intensity signal. Cells were plated and a medium-change to a 1% serum containing medium was performed 24h later. The next day, test compounds were added and incubated for 1.5 h before addition of detection reagent.
The response produced was measured and compared with the response produced by 10 [mu]M 5-HT or the maximal effect induced by 5-HT (defined as 100%) to which it was expressed as a percentage response (relative efficacy). Dose response curves were constructed using Graphpad Prism (Graph Software Inc.) or using in house adapted software using a 4 parameter dose response model with variable slope (fit=(Bottom+(Top-Bottom)/(1+10^∧((Log EC50−x)*HillSlope))res=(y-fit)). Results are compiled in the table below.

Structure (SMILES) | CLint scaled at 0.5 μM [1] [L/h/kg] | pEC50 (5-HT2C receptor) | Emax (5-HT2C receptor) [%]
COc1nc(O[C@H]2CC[C@@H](C(F)(F)F)CC2)c(F)cc1CNC(=O)[C@@H]1CCCN1C [Example 19, (2S)—N-[[5-Fluoro-2-methoxy-6-[cis-4-(trifluoromethyl)cyclohexoxy]-3-pyridyl]methyl]-1-methyl-pyrrolidine-2-carboxamide; Fumaric Acid] | 5 to 50 | > 7.70 | > 70
COc1nc(O[C@H]2CC[C@@H](C(F)(F)F)CC2)c(F)cc1CNC(=O)[C@@H]1CCCN1 [Example 20, (2S)—N-[[5-Fluoro-2-methoxy-6-[cis-4-(trifluoromethyl)cyclohexoxy]-3-pyridyl]methyl]pyrrolidine-2-carboxamide; Fumaric Acid] | 5 to 50 | > 7.70 | > 70
COc1nc(OC2CCC(F)(F)C2)c(F)cc1CNC(=O)[C@@H]1CCCN1C (stereo partly drawn) [Example 23, (2S)—N-[[6-(3,3-Difluorocyclopentoxy)-5-fluoro-2-methoxy-3-pyridyl]methyl]-1-methyl-pyrrolidine-2-carboxamide; Fumaric Acid] | < 5 | > 7.70 | > 70
COc1nc(OC2CCC(F)(F)C2)c(F)cc1CNC(=O)[C@@H]1CCCN1 (stereo partly drawn) [Example 24, (2S)—N-[[6-(3,3-Difluorocyclopentoxy)-5-fluoro-2-methoxy-3-pyridyl]methyl]-pyrrolidine-2-carboxamide; Fumaric Acid] | < 5 | > 7.70 | > 70
COc1nc(OC[C@@H]2CCC(F)(F)C2)c(F)cc1CNC(=O)[C@H]1CCCN1C [Example 25, (2R)—N-[[6-[[(1R)-3,3-Difluorocyclopentyl]methoxy]-5-fluoro-2-methoxy-3-pyridyl]methyl]-1-methyl-pyrrolidine-2-carboxamide; Fumaric Acid] | < 5 | 6.70 to 7.70 | 50 to 70
COc1nc(O[C@H]2CCC(F)(F)C2)c(F)cc1CNC(=O)[C@@H]1CCCN1C [Example 26, (2S)—N-[[6-[(1S)-3,3-Difluorocyclopentoxy]-5-fluoro-2-methoxy-3-pyridyl]methyl]-1-methyl-pyrrolidine-2-carboxamide Hydrochloride] | < 5 | > 7.70 | > 70
COc1nc(O[C@@H]2CCC(F)(F)C2)c(F)cc1CNC(=O)[C@@H]1CCCN1C [Example 27, (2S)—N-[[6-[(1R)-3,3-Difluorocyclopentoxy]-5-fluoro-2-methoxy-3-pyridyl]methyl]-1-methyl-pyrrolidine-2-carboxamide Hydrochloride] | < 5 | > 7.70 | > 70
COc1nc(O[C@H]2CC[C@H](F)CC2)c(F)cc1CNC(=O)[C@@H]1CCCN1C [Example 28, (2S)—N-[[5-Fluoro-6-(trans-4-fluorocyclohexoxy)-2-methoxy-3-pyridyl]methyl]-1-methyl-pyrrolidine-2-carboxamide; Fumaric Acid] | < 5 | > 7.70 | > 70
COc1nc(O[C@H]2CC[C@@H](F)CC2)c(F)cc1CNC(=O)[C@@H]1CCCN1C [Example 29, (2S)—N-[[5-Fluoro-6-(cis-4-fluorocyclohexoxy)-2-methoxy-3-pyridyl]methyl]-1-methyl-pyrrolidine-2-carboxamide; Fumaric Acid] | < 5 | > 7.70 | > 70
COc1nc(O[C@H]2CC[C@@H](F)CC2)c(F)cc1CNC(=O)[C@@H]1CCCN1 [Example 30, (2S)—N-[[5-Fluoro-6-(cis-4-fluorocyclohexoxy)-2-methoxy-3-pyridyl]methyl]-pyrrolidine-2-carboxamide; Fumaric Acid] | < 5 | > 7.70 | > 70
COc1nc(O[C@H]2CC[C@H](F)CC2)c(F)cc1CNC(=O)[C@@H]1CCCN1 [Example 31, (2S)—N-[[5-Fluoro-6-(trans-4-fluorocyclohexoxy)-2-methoxy-3-pyridyl]methyl]-pyrrolidine-2-carboxamide; Fumaric Acid] | < 5 | > 7.70 | > 70
COc1nc(OC[C@H]2CCC(F)(F)C2)c(F)cc1CNC(=O)[C@@H]1CCCN1 [Example 32, (2S)—N-[[6-[[(1S)-3,3-Difluorocyclopentyl]methoxy]-5-fluoro-2-methoxy-3-pyridyl]methyl]pyrrolidine-2-carboxamide; Fumaric Acid] | < 5 | > 7.70 | 50 to 70
COc1nc(OC[C@@H]2CCC(F)(F)C2)c(F)cc1CNC(=O)[C@@H]1CCCN1 [Example 33, (2S)—N-[[6-[[(1R)-3,3-Difluorocyclopentyl]methoxy]-5-fluoro-2-methoxy-3-pyridyl]methyl]pyrrolidine-2-carboxamide; Fumaric Acid] | < 5 | > 7.70 | > 70
COc1nc(OC2CCC(F)(F)CC2)c(F)cc1CNC(=O)[C@@H]1C[C@@H](F)CN1 [Example 34, (2S,4R)—N-[[6-(4,4-Difluorocyclohexoxy)-5-fluoro-2-methoxy-3-pyridyl]methyl]-4-fluoro-pyrrolidine-2-carboxamide; Fumaric Acid] | < 5 | > 7.70 | > 70
COc1nc(OC2CCC(C(F)(F)F)CC2)c(F)cc1CNC(=O)[C@@H]1C[C@@H](F)CN1 (stereo partly drawn) [Example 35, (2S,4R)-4-Fluoro-N-[[5-fluoro-2-methoxy-6-[4-(trifluoromethyl)cyclohexoxy]-3-pyridyl]methyl]pyrrolidine-2-carboxamide; Fumaric Acid] | < 5 | > 7.70 | > 70
COc1nc(OC2CCC(C(F)(F)F)CC2)c(F)cc1CNC(=O)[C@@H]1CCN1 (stereo partly drawn) [Example 36, (2S)—N-[[5-Fluoro-2-methoxy-6-[4-(trifluoromethyl)cyclohexoxy]-3-pyridyl]-methyl]azetidine-2-carboxamide; Succinic Acid] | 5 to 50 | > 7.70 | 50 to 70
COc1nc(OC2CCC(F)(F)CC2)c(F)cc1CNC(=O)[C@@H]1CCN1 [Example 37, (2S)—N-[[6-(4,4-Difluorocyclohexoxy)-5-fluoro-2-methoxy-3-pyridyl]methyl]-azetidine-2-carboxamide; Succinic Acid] | < 5 | > 7.70 | 50 to 70
COc1nc(OC2CCC(C(F)(F)F)CC2)c(F)cc1CNC(=O)[C@@H]1CCN1C (stereo partly drawn) [Example 38, (2S)—N-[[5-Fluoro-2-methoxy-6-[4-(trifluoromethyl)cyclohexoxy]-3-pyridyl]methyl]-1-methyl-azetidine-2-carboxamide; Succinic Acid] | 5 to 50 | 6.70 to 7.70 | 50 to 70
COc1nc(OCCCC(F)(F)F)c(F)cc1CNC(=O)[C@@H]1CCCN1 [Example 40, (2S)—N-[[5-Fluoro-2-methoxy-6-(4,4,4-trifluorobutoxy)-3-pyridyl]methyl]-pyrrolidine-2-carboxamide; Succinic Acid] | < 5 | > 7.70 | > 70
COc1nc(OCC2CC(F)(F)C2)c(F)cc1CNC(=O)[C@@H]1CCCN1 [Example 42, (2S)—N-[[6-[(3,3-Difluorocyclobutyl)methoxy]-5-fluoro-2-methoxy-3-pyridyl]-methyl]pyrrolidine-2-carboxamide; Succinic Acid] | < 5 | > 7.70 | > 70
